Data published in patent publication US4590271A, “2,4-diamino-5-(substituted)pyrimidines, useful as antimicrobials” (Burroughs Wellcome Co., priority 1982, dated 1986).
In brackets after ≈: the same amount, converted by molar mass.

What was measured:
N. gonorrhoeae = test: Minimum inhibitory concentration in vitro, N. gonorrhoeae; type: cell-based; conditions: Neisseria gonorrhoeae, mean of 17 strains, read-out: Minimum Inhibitory Concentrations
Staph. aureus CN491 = test: Minimum inhibitory concentration in vitro, Staph. aureus CN491; type: cell-based; conditions: Staphylococcus aureus, read-out: Minimum Inhibitory Concentrations
Esch. coli CN314 = test: Minimum inhibitory concentration in vitro, Esch. coli CN314; type: cell-based; conditions: Escherichia coli, read-out: Minimum Inhibitory Concentrations
St. agalactiae CN1143 = test: Minimum inhibitory concentration in vitro, St. agalactiae CN1143; type: cell-based; conditions: Streptococcus agalactiae, read-out: Minimum Inhibitory Concentrations
St. pyogenes CN10 = test: Minimum inhibitory concentration in vitro, St. pyogenes CN10; type: cell-based; conditions: Streptococcus pyogenes, read-out: Minimum Inhibitory Concentrations
B. fragilis = test: Minimum inhibitory concentration in vitro, B. fragilis; type: cell-based; conditions: Bacteroides fragilis, mean of 3 Strains, read-out: Minimum Inhibitory Concentrations
St. faecalis CN478 = test: Minimum inhibitory concentration in vitro, St. faecalis CN478; type: cell-based; conditions: Enterococcus faecalis, read-out: Minimum Inhibitory Concentrations
bacterial = conditions: amongst the 2,4-diamino-5-benzylpyrimidines known to date; cited from earlier work

MIC (N. gonorrhoeae) [µg/mL] | MIC (Staph. aureus CN491) [µg/mL] | MIC (Esch. coli CN314) [µg/mL] | MIC (St. agalactiae CN1143) [µg/mL] | MIC (St. pyogenes CN10) [µg/mL] | MIC (B. fragilis) [µg/mL] | MIC (St. faecalis CN478) [µg/mL] | SMILES | general antibacterial activity (bacterial)
25 (≈ 76.1 µM) | 0.5 (≈ 1.52 µM) | 0.5 (≈ 1.52 µM) | 5 (≈ 15.2 µM) | 5 (≈ 15.2 µM) | 25 (≈ 76.1 µM) | 0.5 (≈ 1.52 µM) | COc1cc(Cc2cnc(N)nc2N)c2c(C)c(C)oc2c1OC [Compound 1, 2,4-Diamino-5-(6,7-dimethoxy-2,3-dimethyl-4-benzofuranylmethyl)pyrimidine] | 
 | 0.5 (≈ 1.58 µM) | 0.5 (≈ 1.58 µM) | 0.5 (≈ 1.58 µM) | 0.5 (≈ 1.58 µM) | 6.2 (≈ 19.6 µM) | 0.05 (≈ 0.158 µM) | COc1cc(Cc2cnc(N)nc2N)c2c(c1OC)OC(C)C2 (stereo not shown) [Compound 2, 2,4-Diamino-5-(2,3-dihydro-6,7-dimethoxy-2-methyl-4-benzofuranylmethyl)-pyrimidine] | 
2.8 (≈ 8.91 µM) | 0.05 (≈ 0.159 µM) | 0.5 (≈ 1.59 µM) | 0.05 (≈ 0.159 µM) | 0.05 (≈ 0.159 µM) | 0.6 (≈ 1.91 µM) | 0.05 (≈ 0.159 µM) | COc1cc(Cc2cnc(N)nc2N)c2cc(C)oc2c1OC [Compound 3, 2,4-Diamino-5-(6,7-dimethoxy-2-methyl-4-benzofuranylmethyl)pyrimidine] | 

SMILES | MIC (N. gonorrhoeae) [µg/mL] | MIC (Staph. aureus CN491) [µg/mL] | MIC (Esch. coli CN314) [µg/mL] | MIC (St. agalactiae CN1143) [µg/mL] | MIC (St. pyogenes CN10) [µg/mL] | MIC (B. fragilis) [µg/mL] | MIC (St. faecalis CN478) [µg/mL] | general antibacterial activity (bacterial)
COc1cc(Cc2cnc(N)nc2N)cc(OC)c1OC [TMP, 2,4-Diamino-5-(3,4,5-trimethoxybenzyl)pyrimidine, reference compound] | 40 (≈ 138 µM) | 0.5 (≈ 1.72 µM) | 0.05 (≈ 0.172 µM) | 0.5 (≈ 1.72 µM) | 0.5 (≈ 1.72 µM) | 3.1 (≈ 10.7 µM) | 0.1 (≈ 0.344 µM) | most active general antibacterial agent
